{"source": "paper PMC4977465", "about": "“Repositioning organohalogen drugs: a case study for identification of potent B-Raf V600E inhibitors via docking and bioassay” (Scientific Reports, 2016)", "assay_type_in_all_cases": "biochemical", "key": {"[1]": {"molecular_target": "B-Raf V600E (Homo sapiens, UniProt P15056, V600E)", "sequence (P15056 whole entry V600E)": "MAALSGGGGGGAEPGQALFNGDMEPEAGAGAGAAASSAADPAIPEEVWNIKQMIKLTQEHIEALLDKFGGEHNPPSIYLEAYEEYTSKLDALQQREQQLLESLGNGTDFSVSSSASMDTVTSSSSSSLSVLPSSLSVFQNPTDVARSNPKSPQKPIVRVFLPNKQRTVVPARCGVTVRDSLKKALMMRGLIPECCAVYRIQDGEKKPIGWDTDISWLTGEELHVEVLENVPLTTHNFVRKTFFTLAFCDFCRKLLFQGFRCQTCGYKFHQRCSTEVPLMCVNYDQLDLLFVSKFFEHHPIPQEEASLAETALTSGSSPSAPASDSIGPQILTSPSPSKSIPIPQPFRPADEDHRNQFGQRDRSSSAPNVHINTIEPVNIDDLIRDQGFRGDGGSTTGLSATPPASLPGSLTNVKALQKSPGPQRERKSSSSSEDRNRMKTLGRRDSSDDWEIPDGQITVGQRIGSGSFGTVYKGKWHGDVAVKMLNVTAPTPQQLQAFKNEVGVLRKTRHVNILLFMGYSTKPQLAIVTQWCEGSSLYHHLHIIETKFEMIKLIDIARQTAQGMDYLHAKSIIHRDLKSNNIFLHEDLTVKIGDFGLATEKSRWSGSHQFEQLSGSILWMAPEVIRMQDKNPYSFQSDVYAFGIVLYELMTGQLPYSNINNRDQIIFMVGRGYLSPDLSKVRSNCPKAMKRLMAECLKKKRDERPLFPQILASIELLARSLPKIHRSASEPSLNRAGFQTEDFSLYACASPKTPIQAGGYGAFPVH", "assay": "ELISA-based assay of inhibitory activity against B-Raf V600E (MEK to p-MEK)", "settings": "for inhibition at 10 µM: read-out: Inhibition Rate (at 10 μM)"}, "[2]": {"molecular_target": "wild type B-Raf (Homo sapiens, UniProt P15056)", "sequence (P15056 whole entry)": "as the sequence (P15056 whole entry V600E) above, with E600V counted along it", "assay": "ELISA-based assay, wild type B-Raf"}, "[3]": {"molecular_target": "T1, B-Raf T508A (Homo sapiens, UniProt P15056, T508A)", "T1 construct": "B-RAFT508A and B-RAFS602A, residues 433–726; made in house; host or cells: Sf9 insect cells (pFastBac Dual)", "T1 sequence (P15056 433-726 T508A)": "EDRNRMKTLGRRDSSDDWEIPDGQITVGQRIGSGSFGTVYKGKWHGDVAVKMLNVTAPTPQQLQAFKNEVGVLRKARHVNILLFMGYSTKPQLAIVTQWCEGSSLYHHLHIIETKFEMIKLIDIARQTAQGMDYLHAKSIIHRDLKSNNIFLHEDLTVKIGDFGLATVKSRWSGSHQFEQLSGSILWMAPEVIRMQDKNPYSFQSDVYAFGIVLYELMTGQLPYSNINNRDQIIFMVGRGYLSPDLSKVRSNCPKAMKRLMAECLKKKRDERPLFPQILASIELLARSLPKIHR", "assay": "ELISA-based assay, single point mutant B-Raf T508A", "text": "(§1) The mutant sequence of human BRAF kinase domain (B-RAFT508A and B-RAFS602A, residues 433–726) was inserted into the plasmid of pFastBacTM Dual. Then the recombinant plasmid was transported into the sf9 cells. Mutant protein was expressed and purified respectively."}, "[4]": {"molecular_target": "T2, B-Raf S602A (Homo sapiens, UniProt P15056, S602A)", "T2 construct": "B-RAFT508A and B-RAFS602A, residues 433–726; made in house; host or cells: Sf9 insect cells (pFastBac Dual)", "T2 sequence (P15056 433-726 S602A)": "as the sequence (P15056 433-726 T508A) above, with A76T, S170A counted along it", "assay": "ELISA-based assay, single point mutant B-Raf S602A", "text": "as §1"}}, "note": "pIC50: −log10 of the molar value. Where two headings read alike, the source gives them in different places.", "data": [{"compound": "CC1(C)C(C=C(Cl)Cl)C1C(=O)OC(C#N)c1cccc(Oc2ccccc2)c1", "note": "(centres unmarked) [cypermethrin]", "values": [{"measurement": "activity against B-Raf V600E (in words)", "setting": "[1]; ELISA-based assay, 10 μM", "value": "inactive"}, {"measurement": "inhibition at 10 µM", "setting": "[1]", "value": 17.6, "unit": "%"}]}, {"compound": "CCCS(=O)(=O)Nc1ccc(F)c(C(=O)c2c[nH]c3ncc(-c4ccc(Cl)cc4)cc23)c1F", "note": "[vemurafenib]", "values": [{"measurement": "inhibition at 10 µM", "setting": "[1]; B-Raf V600E, 10 μM", "value": 82.9, "unit": "%"}]}, {"compound": "O=C(Nc1ccc(Oc2ccc(Cl)cc2)c(Cl)c1)c1cc(I)cc(I)c1O", "note": "[rafoxanide]", "values": [{"measurement": "pIC50", "setting": "[1]", "value": 7.15}, {"measurement": "inhibition at 10 µM", "setting": "[1]", "value": 73.2, "unit": "%"}, {"measurement": "pIC50", "setting": "[2]", "value": 5.71}, {"measurement": "pIC50", "setting": "[3]", "value": 4.80}, {"measurement": "pIC50", "setting": "[4]", "value": 4.94}]}, {"compound": "CCCS(=O)(=O)Nc1ccc(F)c(C(=O)c2c[nH]c3ncc(Cl)cc23)c1F", "note": "[PLX4720]", "values": [{"measurement": "inhibition at 10 µM", "setting": "[1]; B-Raf V600E, 10 μM", "value": 82.5, "unit": "%"}]}, {"compound": "Cc1cc(C(C#N)c2ccc(Cl)cc2)c(Cl)cc1NC(=O)c1cc(I)cc(I)c1O", "note": "(centres unmarked) [closantel]", "values": [{"measurement": "pIC50", "setting": "[1]; B-Raf V600E, read-out: IC50 B-RAF V600E", "value": 5.72}, {"measurement": "inhibition at 10 µM", "setting": "[1]", "value": 83.9, "unit": "%"}, {"measurement": "pIC50", "setting": "[2]; wild type B-Raf, read-out: IC50 B-RAF WT", "value": 5.72}, {"measurement": "pIC50", "setting": "[3]; B-Raf T508A mutant, read-out: IC50 B-RAF T508A", "value": 5.22}, {"measurement": "pIC50", "setting": "[4]; B-Raf S602A mutant, read-out: IC50 B-RAF S602A", "value": 5.20}]}]}
